Test results published in patent publication US11945793B1, “9-(2-hydroxypyridin-3-yl)-10[3-(dimethylamino)propyl]-3,4,6,7,9,10-hexahydroacridine-1,8(2H,5H)-dione as an antimicrobial compound” (KING FAISAL UNIVERSITY, priority 2023, dated 2024).

Experiments:
Format in all cases: cell-based
Conditions in all cases: after 10, 20, 40 and 60 minutes at all dilutions 1:100, 1:200, 1:400, 1:800
Staphylococcus aureus = assay: Antimicrobial screening by agar dilution, St. aureus
Method: (§1) The antibacterial properties of the synthesized compound 9-(2-hydroxypyridin-3-yl)-10-[3-(dimethylamino)propyl]-3,4,6,7,9,10-hexahydroacridine-1,8(2H,5H)-dione were studied by the method of agar dilution. Test solutions of each compound was prepared in concentration of 1% using dimethylformamide as a solvent then they are diluted in physiological solution to obtain the final experimental dilutions 1:100, 1:200, 1:400, 1:800. The effect of these substances are compared with furacillin in a controllable study. The testing microbes used were gram positive bacteria Staphylococcus aureus, gram negative bacteria Pseudomonas aeruginosa and Escherichia coli and Candida albicans fungus. The experiments used for this survey were meat-pentonlu agar (EPA) for cultivation of bacteria and Saburo environment for the fungus. Each experiment used 1 mL of test solution on each plate […]. Two drops of emulsified with microbes feel were added. All experimental samples were taken from the agar after 10, 20, 40, 60 minutes in the environment on the basis of Patrk planted. The bacteria were cultivated at a temperature of 37° C. for 1 day and the mushroom was kept in a thermostat for […] at a temperature of 28° C. Then results were checked.

Escherichia coli = assay: Antimicrobial screening by agar dilution, E. coli
Method: as §1

Pseudomonas aeruginosa = assay: Antimicrobial screening by agar dilution, Ps. aeruginosa
Method: as §1

Candida albicans = assay: Antimicrobial (antifungal) screening by agar dilution, Candida albicans
Method: as §1

Measured: inhibition activity (in words)

CN(C)CCCN1C2=C(C(=O)CCC2)C(c2cccnc2O)C2=C1CCCC2=O [9-(2-hydroxypyridin-3-yl)-10-[3-(dimethylamino)propyl]-3,4,6,7,9,10-hexahydroacridine-1,8(2H,5H)-dione]
highest inhibition activity: all assays above
